Measurements published in the CheMixHub viscosity set.
“And” between values parts separate entries of the source, which are not always exact repeats. Equal values may be shown once.

Experiment: xn = mol fraction of the nth substance listed

COc1ccccc1 + CCCCCCCO
viscosity [mPa·s]
Conditions | 303 K | 303.15 K | 313 K | 313.15 K | 323 K | 323.15 K
100 kPa, x1 = 0.126 | 3.393 | – | 2.351 | – | 1.972 | –
100 kPa, x1 = 0.245 | 2.343 | – | 1.746 | – | 1.46 | –
100 kPa, x1 = 0.357 | 1.759 | – | 1.349 | – | 1.173 | –
100 kPa, x1 = 0.464 | 1.364 | – | 1.124 | – | 0.9642 | –
100 kPa, x1 = 0.565 | 1.172 | – | 0.9672 | – | 0.849 | –
100 kPa, x1 = 0.66 | 1.068 | – | 0.8719 | – | 0.7334 | –
100 kPa, x1 = 0.752 | 0.9884 | – | 0.8171 | – | 0.684 | –
100 kPa, x1 = 0.838 | 0.9459 | – | 0.7783 | – | 0.6326 | –
100 kPa, x1 = 0.921 | 0.9418 | – | 0.7546 | – | 0.6041 | –
101.33 kPa, x1 = 0.1002 | – | 3.922 | – | 2.94 | – | 2.245
101.33 kPa, x1 = 0.1999 | – | 3.023 | – | 2.359 | – | 1.812
101.33 kPa, x1 = 0.3 | – | 2.457 | – | 1.932 | – | 1.554
101.33 kPa, x1 = 0.4003 | – | 1.996 | – | 1.611 | – | 1.292
101.33 kPa, x1 = 0.5 | – | 1.701 | – | 1.373 | – | 1.161
101.33 kPa, x1 = 0.6 | – | 1.448 | – | 1.212 | – | 0.998
101.33 kPa, x1 = 0.7002 | – | 1.213 | – | 1.01 | – | 0.864
101.33 kPa, x1 = 0.8002 | – | 1.072 | – | 0.892 | – | 0.768
101.33 kPa, x1 = 0.9001 | – | 0.969 | – | 0.824 | – | 0.714

C1CCOC1 + Cc1ccccc1
303.15 K, 101.33 kPa
Conditions | viscosity [mPa·s]
x1 = 0.1014 | 0.52
x1 = 0.1984 | 0.518
x1 = 0.3066 | 0.512
x1 = 0.3662 | 0.51
x1 = 0.4984 | 0.499
x1 = 0.5997 | 0.489
x1 = 0.702 | 0.479
x1 = 0.7981 | 0.467
x1 = 0.8997 | 0.453

c1ccc2ccccc2c1 + c1ccccc1
Conditions | viscosity
293.15 K, 101 kPa, x1 = 0.006242 | 0.653 mPa·s
293.15 K, 101 kPa, x1 = 0.01216 | 0.66 mPa·s
293.15 K, 101 kPa, x1 = 0.02495 | 0.674 mPa·s
298.15 K, 101 kPa, x1 = 0.051 | 0.6565 mPa·s
298.15 K, 101 kPa, x1 = 0.1121 | 0.7261 mPa·s
298.15 K, 101 kPa, x1 = 0.1538 | 0.7707 mPa·s
298.15 K, 101 kPa, x1 = 0.1979 | 0.8263 mPa·s
298.15 K, 101 kPa, x1 = 0.2398 | 0.8764 mPa·s
298.15 K, 101 kPa, x1 = 0.2476 | 0.8712 mPa·s
298.15 K, 101 kPa, x1 = 0.2693 | 0.9178 mPa·s
298.15 K, 101.33 kPa, x1 = 0.0282 | 0.6309 mPa·s
298.15 K, 101.33 kPa, x1 = 0.069 | 0.6732 mPa·s
298.15 K, 101.33 kPa, x1 = 0.0898 | 0.6932 mPa·s
298.15 K, 101.33 kPa, x1 = 0.1341 | 0.7423 mPa·s
298.15 K, 101.33 kPa, x1 = 0.1587 | 0.7733 mPa·s
298.15 K, 101.33 kPa, x1 = 0.2089 | 0.833 mPa·s
298.15 K, 101.33 kPa, x1 = 0.25 | 0.8712 mPa·s
298.15 K, 101.33 kPa, x1 = 0.2533 | 0.8891 mPa·s
303.15 K, 101 kPa, x1 = 0.2476 | 0.8077 mPa·s
303.15 K, 101 kPa, x1 = 0.3593 | 0.9452 mPa·s
303.15 K, 101.33 kPa, x1 = 0.0282 | 0.5882 mPa·s
303.15 K, 101.33 kPa, x1 = 0.069 | 0.6269 mPa·s
303.15 K, 101.33 kPa, x1 = 0.0898 | 0.6448 mPa·s
303.15 K, 101.33 kPa, x1 = 0.1341 | 0.6897 mPa·s
303.15 K, 101.33 kPa, x1 = 0.1587 | 0.7181 mPa·s
303.15 K, 101.33 kPa, x1 = 0.2089 | 0.7723 mPa·s
303.15 K, 101.33 kPa, x1 = 0.25 | 0.8077 mPa·s and 0.8077 mPa·s
303.15 K, 101.33 kPa, x1 = 0.2533 | 0.8222 mPa·s
303.15 K, 101.33 kPa, x1 = 0.26 | 0.8211 mPa·s
303.15 K, 101.33 kPa, x1 = 0.33 | 0.874 mPa·s
303.15 K, 101.33 kPa, x1 = 0.36 | 0.9452 mPa·s and 0.9452 mPa·s
308.15 K, 101 kPa, x1 = 0.2476 | 0.7485 mPa·s
308.15 K, 101 kPa, x1 = 0.3593 | 0.8742 mPa·s
308.15 K, 101.33 kPa, x1 = 0.25 | 0.7485 mPa·s
308.15 K, 101.33 kPa, x1 = 0.36 | 0.8742 mPa·s
313.15 K, 101 kPa, x1 = 0.006242 | 0.501 mPa·s
313.15 K, 101 kPa, x1 = 0.01216 | 0.505 mPa·s
313.15 K, 101 kPa, x1 = 0.02495 | 0.514 mPa·s
313.15 K, 101 kPa, x1 = 0.2476 | 0.6983 mPa·s
313.15 K, 101 kPa, x1 = 0.3593 | 0.8115 mPa·s
313.15 K, 101.33 kPa, x1 = 0.0282 | 0.516 mPa·s
313.15 K, 101.33 kPa, x1 = 0.069 | 0.5478 mPa·s
313.15 K, 101.33 kPa, x1 = 0.0898 | 0.5665 mPa·s
313.15 K, 101.33 kPa, x1 = 0.1341 | 0.6017 mPa·s
313.15 K, 101.33 kPa, x1 = 0.1587 | 0.6263 mPa·s
313.15 K, 101.33 kPa, x1 = 0.2089 | 0.6698 mPa·s
313.15 K, 101.33 kPa, x1 = 0.25 | 0.6983 mPa·s
313.15 K, 101.33 kPa, x1 = 0.2533 | 0.72 mPa·s
313.15 K, 101.33 kPa, x1 = 0.36 | 0.8115 mPa·s
318.15 K, 101 kPa, x1 = 0.2476 | 0.654 mPa·s
318.15 K, 101 kPa, x1 = 0.3593 | 0.7546 mPa·s
318.15 K, 101.33 kPa, x1 = 0.25 | 0.654 mPa·s and 0.654 mPa·s
318.15 K, 101.33 kPa, x1 = 0.26 | 0.666 mPa·s
318.15 K, 101.33 kPa, x1 = 0.33 | 0.7066 mPa·s
318.15 K, 101.33 kPa, x1 = 0.36 | 0.7546 mPa·s and 0.7546 mPa·s
318.15 K, 101.33 kPa, x1 = 0.418 | 0.817 mPa·s
323.15 K, 101 kPa, x1 = 0.009498 | 0.445 mPa·s
323.15 K, 101 kPa, x1 = 0.02432 | 0.454 mPa·s
323.15 K, 101 kPa, x1 = 0.02618 | 0.456 mPa·s
323.15 K, 101.33 kPa, x1 = 0.0282 | 0.4564 mPa·s
323.15 K, 101.33 kPa, x1 = 0.069 | 0.4838 mPa·s
323.15 K, 101.33 kPa, x1 = 0.0898 | 0.4993 mPa·s
323.15 K, 101.33 kPa, x1 = 0.1341 | 0.529 mPa·s
323.15 K, 101.33 kPa, x1 = 0.1587 | 0.5509 mPa·s
323.15 K, 101.33 kPa, x1 = 0.2089 | 0.5871 mPa·s
323.15 K, 101.33 kPa, x1 = 0.2533 | 0.6319 mPa·s

CC(C)=O + OCCO
293.15 K, 101.33 kPa
Conditions | viscosity [mPa·s]
x2 = 0.1258 | 0.439
x2 = 0.2405 | 0.625
x2 = 0.2517 | 0.651
x2 = 0.3451 | 0.912
x2 = 0.3891 | 1.086
x2 = 0.5257 | 1.91
x2 = 0.6291 | 3.034
x2 = 0.6515 | 3.393
x2 = 0.7734 | 6.123
x2 = 0.8254 | 7.897
x2 = 0.8715 | 9.97
x2 = 0.921 | 13.18

C1CCOC1 + CC(C)O
101 kPa
Conditions | viscosity
298.15 K, x1 = 0.05 | 1.706 mPa·s
298.15 K, x1 = 0.1 | 1.445 mPa·s
298.15 K, x1 = 0.15 | 1.248 mPa·s
298.15 K, x1 = 0.2001 | 1.113 mPa·s
298.15 K, x1 = 0.25 | 0.988 mPa·s
298.15 K, x1 = 0.3 | 0.896 mPa·s
298.15 K, x1 = 0.35 | 0.812 mPa·s
298.15 K, x1 = 0.4 | 0.752 mPa·s
298.15 K, x1 = 0.45 | 0.703 mPa·s
298.15 K, x1 = 0.5 | 0.659 mPa·s and 0.6917 mPa·s
298.15 K, x1 = 0.55 | 0.623 mPa·s
298.15 K, x1 = 0.6 | 0.594 mPa·s
298.15 K, x1 = 0.65 | 0.567 mPa·s
298.15 K, x1 = 0.7 | 0.545 mPa·s
298.15 K, x1 = 0.75 | 0.526 mPa·s
298.15 K, x1 = 0.8 | 0.511 mPa·s
298.15 K, x1 = 0.85 | 0.497 mPa·s
298.15 K, x1 = 0.9 | 0.488 mPa·s
298.15 K, x1 = 0.95 | 0.48 mPa·s
298.15 K, x2 = 0.1211 | 0.49 mPa·s
298.15 K, x2 = 0.2273 | 0.525 mPa·s
298.15 K, x2 = 0.3055 | 0.556 mPa·s
298.15 K, x2 = 0.3798 | 0.587 mPa·s
298.15 K, x2 = 0.4846 | 0.654 mPa·s
298.15 K, x2 = 0.5812 | 0.745 mPa·s
298.15 K, x2 = 0.6948 | 0.899 mPa·s
298.15 K, x2 = 0.7237 | 0.963 mPa·s
298.15 K, x2 = 0.8181 | 1.256 mPa·s
298.15 K, x2 = 0.9031 | 1.571 mPa·s
298.15 K, x2 = 0.955 | 1.803 mPa·s
303 K, x1 = 0.0983 | 1.07 mPa·s
303 K, x1 = 0.2085 | 0.86 mPa·s
303 K, x1 = 0.2911 | 0.71 mPa·s
303 K, x1 = 0.3728 | 0.58 mPa·s
303 K, x1 = 0.5014 | 0.56 mPa·s
303 K, x1 = 0.5976 | 0.54 mPa·s
303 K, x1 = 0.7483 | 0.48 mPa·s
303 K, x1 = 0.8001 | 0.47 mPa·s
303 K, x1 = 0.8939 | 0.45 mPa·s
308.15 K, x1 = 0.05 | 1.313 mPa·s
308.15 K, x1 = 0.1 | 1.142 mPa·s
308.15 K, x1 = 0.15 | 1.009 mPa·s
308.15 K, x1 = 0.2001 | 0.909 mPa·s
308.15 K, x1 = 0.25 | 0.824 mPa·s
308.15 K, x1 = 0.3 | 0.755 mPa·s
308.15 K, x1 = 0.35 | 0.697 mPa·s
308.15 K, x1 = 0.4 | 0.646 mPa·s
308.15 K, x1 = 0.45 | 0.606 mPa·s
308.15 K, x1 = 0.5 | 0.576 mPa·s
308.15 K, x1 = 0.55 | 0.549 mPa·s
308.15 K, x1 = 0.6 | 0.526 mPa·s
308.15 K, x1 = 0.65 | 0.507 mPa·s
308.15 K, x1 = 0.7 | 0.489 mPa·s
308.15 K, x1 = 0.75 | 0.474 mPa·s
308.15 K, x1 = 0.8 | 0.461 mPa·s
308.15 K, x1 = 0.85 | 0.452 mPa·s
308.15 K, x1 = 0.9 | 0.444 mPa·s
308.15 K, x1 = 0.95 | 0.44 mPa·s
313 K, x1 = 0.0983 | 0.86 mPa·s
313 K, x1 = 0.2085 | 0.7 mPa·s
313 K, x1 = 0.2911 | 0.61 mPa·s
313 K, x1 = 0.3728 | 0.54 mPa·s
313 K, x1 = 0.5014 | 0.48 mPa·s
313 K, x1 = 0.5976 | 0.46 mPa·s
313 K, x1 = 0.7483 | 0.45 mPa·s
313 K, x1 = 0.8001 | 0.43 mPa·s
313 K, x1 = 0.8939 | 0.43 mPa·s
